Reference: patent US5179217A, “Method of preparing photochemotherapic alkylangelicin compounds” (priority 1982, dated 1993)
“And” between values parts separate entries of the source, which are not always exact repeats. Equal values may be shown once. Read-outs that look alike come from different tables or passages of the source.

Assays:
epidermal DNA synthesis [1] = test: Inhibition of epidermal DNA synthesis in the mouse in vivo after oral administration and UV-A irradiation; conditions: light or radiation study, read-out: % inhibition of epidermal DNA synthesis
Protocol: The strong activity of the 6-alkylangelicins according to the invention in inhibiting the epidermal DNA synthesis of mice after oral administration (see Table VI) allows to consider these compounds effective also by oral administration in humans and UV-A irradiation.
Inhibition of epidermal DNA synthesis
in the mouse "in vivo" after oral
administration of the compound (250 mg/kg)
and UV-A irradiation (9 J/cm^2) (a).
(§1) (a) Determined according to Bordin et al., Il Farmaco, Ed.Sc., 36, 506,

DNA [2] = test: Binding parameters of the complexes between 6-alkylangelicins and DNA (in the dark); design: K values: unit not given here; conditions: for -n (number of nucleotides occluded by one bound molecule) / l/-n (frequency of binding sites, ligands bound per nucleotide): according to Mc Ghee and Von Hippel; for K values: complex with DNA
From the text: (§2) The 6-alkylangelicins show a strong affinity with DNA in the dark, thus forming molecular intercalated complexes; moreover the 6-methylangelicins complexed to DNA by irradiation bind very strongly to the macromolecule, inducing only monofunctional lesions (Table I).
(§3) Binding parameters of the complexes between 6-alkylangelicins and DNA
^a According to Mc Ghee and Von Hippel, (J.Mol. Biol., 86, 469, 1974)
-n is defined here as the number of nucleotides occluded by one bound
molecule of angelicin derivative.
^b l/-n defines, according to Mc Ghee and Von Hippel, the frequency o
binding sites; in other words, the number of ligands bound per nucleotide
and can be considered analogous to the "-n" value obtained by the classic
Scratchard method (Ann. N.Y. Acad. Sci., 51, 660, 1949).

DNA [3] = test: Rate constant of photoreaction with DNA; type: biochemical; conditions: irradiation
From the text: as §2, §3
and rate constant of their photoreactions with the macromolecule.

epidermal DNA synthesis [4] = test: Inhibition of epidermal DNA synthesis in the mouse in vivo after topical application and UV-A irradiation; conditions: topical 50 μg/cm^2, UV-A 9 J/cm^2, ± S.E.
Protocol: Inhibition of epidermal DNA synthesis in the mouse "in vivo"
after topical application (50 μg/cm^2) of the compound and

[5] = test system: Ehrlich ascites tumor cells; test: Inhibition of DNA synthesis in Ehrlich ascites tumor cells; type: cell-based; conditions: relative to angelicin = 100
From the text: (§4) The 6-alkylangelicins show a strong antiproliferative activity in Ehrlich ascites tumor cells (Table II) and on the skin of mice in terms of DNA synthesis inhibition (Table III). These compounds are practically unable to induce skin phototoxicity on albino guinea-pig skin (Table II).
as §1

albino guinea-pig skin = test: Skin erythemogenic activity / skin phototoxicity on albino guinea-pig skin; conditions: in vivo
From the text: as §4, §1

E. coli WP2-uvr A = type: cell-based
Protocol: Mutagenic activity of 6-alkylangelicins on E. coli
WP2-uvr A by irradiation with UV-A (a).
(a) The test was performed at the furocoumarin concentration of 5 μg/m
according to Venturini et al., Chem. Biol. Interactions, 30, 203, 1980.

psoriatic lesions = conditions: for % clearance: topical 5 μg/cm^2 + UV-A (maximal dose 4-10 J/cm^2), 9-15 treatments; for dark pigmentation of human skin: treated area, patients
Protocol: In the treated patients various areas 4×4 cm of the affected skin were used:
a) in the first area an ethanolic solution (0.1% W/V) of the compound under investigation, was applied until a concentration of 5 μg/cm^2 was reached and left to evaporate by the heat of the body (or by hot air stream).
c) a third area was treated in the same way as area a), but was not irradiated with UV-A;
d) a fourth area was irradiated as in a) with the same dose of UV-A light in the absence of any compound.

[6] = Acute toxicity (LD50) in mice; conditions: mouse, in vivo
mice = test: Acute toxicity (LD50) in mice; conditions: mice, per os; 6,4'-dimethylangelicin in methylcellulose suspension
DNA [7] = conditions: reference compound; data from Dall'Acqua et al. 1979; cited from earlier work
DNA [8] = conditions: reference compound; data from Dall'Acqua et al. 1979; cited from earlier work; remark: listed apart in the source
[9] = mouse in vivo, oral 250 mg/kg, UV-A 9 J/cm^2, ± S.E.
[10] = UV-A irradiation time 10 seconds
[11] = UV-A irradiation time 20 seconds
[12] = UV-A irradiation time 30 seconds
[13] = UV-A irradiation time 60 seconds

| SMILES | -n (number of nucleotides occluded by one bound molecule) (DNA [2]) | l/-n (frequency of binding sites, ligands bound per nucleotide) (DNA [2]) | K values (DNA [2]) | rate constant of photoreaction with DNA (DNA [3]) [min^-1 × 10^2] | % inhibition of epidermal DNA synthesis (epidermal DNA synthesis [4]) [%] | inhibition at 250 mg/kg (epidermal DNA synthesis [1]; [9]) [%] | Relative activity (inhibition of DNA synthesis in Ehrlich ascites tumor cells) [5] | skin erythemogenic activity (albino guinea-pig skin) | no of mutants per 10^6 survivors (E. coli WP2-uvr A; [10]) | no of mutants per 10^6 survivors (E. coli WP2-uvr A; [11]) | no of mutants per 10^6 survivors (E. coli WP2-uvr A; [12]) | no of mutants per 10^6 survivors (E. coli WP2-uvr A; [13]) | further results |
| --- | --- | --- | --- | --- | --- | --- | --- | --- | --- | --- | --- | --- | --- |
| O=c1ccc2ccc3occc3c2o1 [angelicin] | 15.87 | 0.063 ± 0.003 | 560 | 1.10 | 17.5 ± 2.5 |  |  |  |  |  |  |  | inhibition at 250 mg/kg (epidermal DNA synthesis [1]; Mus musculus, po): 28 ± 2% |
| Cc1cc2c(o1)c(C)cc1ccc(=O)oc12 [6,5'-dimethylangelicin] | 12.82 | 0.078 ± 0.004 | 1,975 ± 136 | 3.00 |  | 22.5 ± 12 | 210 | - |  |  |  |  |  |
| Cc1cc(=O)oc2c1cc(C)c1occc12 [6,4-dimethylangelicin] | 15.87 | 0.063 ± 0.003 | 2,990 ± 232 | 5.23 | 47.05 ± 4.3 | 58.4 ± 13 | 625 | - | 0.24 mutants per 10^6 survivors | 0.7 mutants per 10^6 survivors | 0.99 mutants per 10^6 survivors | 1.83 mutants per 10^6 survivors |  |
| Cc1c(C)c2occc2c2oc(=O)ccc12 [6,5-dimethylangelicin] |  |  |  |  | 52.83 ± 2.3 | 50.1 ± 19 |  |  |  |  |  |  |  |
| Cc1cc2c(o1)c(C)c(C)c1ccc(=O)oc12 [6,5,5'-trimethylangelicin] | 14.29 | 0.070 ± 0.0035 | 3,730 ± 339 | 2.30 | 36.01 ± 11.7 | 60.6 ± 14.1 |  |  |  |  |  |  |  |
| Cc1cc(=O)oc2c1cc(C)c1occ(C)c12 [6,4,4'-trimethylangelicin] | 10.99 | 0.091 ± 0.0045 | 10,100 ± 1190 | 13.30 |  | 67.7 ± 8.2 | 41666 | - | 0.84 mutants per 10^6 survivors | 1.18 mutants per 10^6 survivors | 1.24 mutants per 10^6 survivors | 1.98 mutants per 10^6 survivors | genotoxicity, mutagenic activity (E. coli WP2-uvr A): low genotoxicity; skin phototoxicity on guinea-pig skin (albino guinea-pig skin): absence of skin phototoxicity on guinea-pig skin; % clearance (psoriatic lesions; single psoriatic patients, listed as 6,4,4'-TMA): 100% and 95% and 90%; dark pigmentation of human skin (psoriatic lesions): appears more active |
| Cc1cc2c(o1)c(C)cc1c(C)cc(=O)oc12 [6,4,5'-trimethylangelicin] | 22.22 | 0.045 ± 0.002 | 3,310 ± 281 | 7.02 |  | 36.8 ± 8.5 | 646 | - | 0.62 mutants per 10^6 survivors | 0.91 mutants per 10^6 survivors | 1.23 mutants per 10^6 survivors | 1.93 mutants per 10^6 survivors |  |
| Cc1cc2ccc(=O)oc2c2c(C)coc12 [6,4'-dimethylangelicin] | 16.39 | 0.061 ± 0.003 | 6,300 ± 541 | 9.90 | 36.56 ± 3.9 | 49.2 ± 8 | 1096 | - | 0.96 mutants per 10^6 survivors | 1.76 mutants per 10^6 survivors | 2.63 mutants per 10^6 survivors |  | LD50 ([6]; ip): 750 mg/kg; LD50 ([6]; po): > 2000 mg/kg; genotoxicity, mutagenic activity (E. coli WP2-uvr A): low genotoxicity; skin phototoxicity on guinea-pig skin (albino guinea-pig skin): absence of skin phototoxicity on guinea-pig skin; pigmental capacity (psoriatic lesions; single psoriatic patients, topical 5 μg/cm^2 + UV-A): +; % clearance (psoriatic lesions; single psoriatic patients, listed as 6,4'-DMA): 100% and 90%; dark pigmentation of human skin (psoriatic lesions): evident dark pigmentation in the treated area, less pronounced than that induced by 8-MOP |
| Cc1cc2ccc(=O)oc2c2ccoc12 [6-methylangelicin] | 20.83 | 0.048 ± 0.002 | 925 ± 64 | 3.60 | 29.25 ± 13.3 | 19.6 ± 9.2 | 95 | - |  |  |  |  |  |
| COc1c2occc2cc2ccc(=O)oc12 [8-MOP, 8-methoxypsoralen, reference compound] |  |  |  |  | 61.0 ± 1.6 | 39.1 ± 3.7 |  | ++ | 0.4 mutants per 10^6 survivors | 1.15 mutants per 10^6 survivors | 1.5 mutants per 10^6 survivors | 3.1 mutants per 10^6 survivors | LD50 (mice): 750 mg/kg; LD50 ([6]; ip): 300 mg/kg; no of mutants per 10^6 survivors (E. coli WP2-uvr A; UV-A irradiation time 90 seconds): 7.0 mutants per 10^6 survivors; -n (number of nucleotides occluded by one bound molecule) (DNA [7]): 7.81; K values (DNA [7]): 736; l/-n (frequency of binding sites, ligands bound per nucleotide) (DNA [7]): 0.128; induction of skin erythema in humans (psoriatic lesions; human, in vivo): severe phototoxic response; rate constant of photoreaction with DNA (DNA [8]): 3.10 min^-1 × 10^2 |
